Here are results for one compound from patent US12390447B2, “Sirtuin 6 protein deacylase (SIRT6) activators” (Wisconsin Alumni Research Foundation, priority 2019, dated 2025).

SMILES strings stand for the structures.

For one assay, the target named is T1, SIRT1 (Homo sapiens, UniProt Q96EB6).
T1 sequence (Q96EB6 1-747): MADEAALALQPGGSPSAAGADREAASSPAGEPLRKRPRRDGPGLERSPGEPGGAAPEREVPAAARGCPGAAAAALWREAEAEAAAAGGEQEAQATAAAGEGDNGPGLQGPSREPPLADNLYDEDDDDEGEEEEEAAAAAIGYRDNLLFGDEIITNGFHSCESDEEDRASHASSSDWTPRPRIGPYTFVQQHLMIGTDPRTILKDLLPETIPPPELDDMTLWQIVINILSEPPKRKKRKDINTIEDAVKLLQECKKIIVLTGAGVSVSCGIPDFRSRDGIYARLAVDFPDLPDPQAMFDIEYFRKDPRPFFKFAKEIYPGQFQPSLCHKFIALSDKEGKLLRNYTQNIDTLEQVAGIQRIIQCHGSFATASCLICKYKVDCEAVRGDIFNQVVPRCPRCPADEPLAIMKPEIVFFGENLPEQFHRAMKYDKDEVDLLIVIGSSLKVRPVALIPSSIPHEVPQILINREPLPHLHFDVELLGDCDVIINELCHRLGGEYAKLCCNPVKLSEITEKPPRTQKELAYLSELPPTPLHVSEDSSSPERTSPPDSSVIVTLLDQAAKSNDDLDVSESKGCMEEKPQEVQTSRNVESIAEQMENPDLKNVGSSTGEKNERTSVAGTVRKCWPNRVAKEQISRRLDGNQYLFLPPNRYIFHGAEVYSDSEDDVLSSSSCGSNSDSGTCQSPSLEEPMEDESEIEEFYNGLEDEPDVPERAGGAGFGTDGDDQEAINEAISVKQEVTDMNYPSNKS
The assay is described as follows: SIRT1 deacetylase activity against H3K9ac peptide. Format: biochemical. The following applies: 400 μM compound. The procedure: FIGS. 1A-F illustrate the identification of novel SIRT6 activators. (1A) Compound libraries BML-2803, BML-2800, and an additional set of 178 molecules were screened at 100 μM for their ability to stimulate SIRT6 (1 μM) deacetylation of H3K9ac peptide (20 μM) in the presence of 0.5 mM NAD^+. SIRT6 activity was measured by HPLC quantification of H3K9ac and deacetylated product (inset) and fold activations relative to DMSO control were determined and compiled. (1B) Fold-activation of SIRT6 (1 μM) determined in the presence of either 0-400 μM CL4, 0-150 μM TTNPB, 0-100 μM Lysophosphatidic acid (LPA), or 0-200 μM linoleoylglycine (LGly). Maximum fold-activation and EC50 determined by sigmoidal curve fit. […] Constants Km, H3K9ac and kcat were determined by fitting data to Michaelis-Menten equation. (1D) Fold-activations of SIRT1 (0.1 μM), SIRT2 (0.2 μM), SIRT3 (1 μM), SIRT5 (2 μM), and SIRT6 (1 μM) determined in the presence of CL4 (100 μM), TTNPB (50 μM), and LPA (50 μM) relative to DMSO control against 20 μM H3K9ac peptide and 0.5 mM NAD^+. […]
All sirtuin deacylation assays were carried out at 37° C. in 20 mM potassium phosphate pH 7.5 with 0.5 mM NAD^+, 10% DMSO, and 20 μM H3K9ac or H3K9myr peptides, unless otherwise noted in legend, and quenched by the addition of 2% TFA final. […] The product and substrate peaks were quantified and ratio of these allowed for quantification of product formation. […]

The target of another assay is SIRT6 (Homo sapiens, UniProt Q8N6T7). Description: Histone deacetylation assay with acid extracted histones, H3K9ac immunoblot. Type of assay: biochemical. The conditions noted are these: 50 μM compound; histones 75 μg/mL from SAHA-treated HEK293T cells; SIRT6 1 μM. The procedure:
HEK293T cells were cultured in Dulbecco's Modified Eagle Medium supplemented with 10% fetal bovine serum. Cells were treated with 10 μM SAHA for 24 hours prior to harvest. Cells were trypsinized and pelleted prior to washing twice with ice-cold PBS. Cells were then resuspended in 800 μL ice-cold 10 mM HEPES pH 7.4, 10 mM KCl, 0.05% NP-40, and histone deacetylase and protease inhibitors (1 mM sodium butyrate, 4 μM trichostatin A, 100 μM phenylmethylsulfonyl fluoride, 10 μg/mL leupeptin, and 10 μg/mL aprotinin) for 20 minutes. After a 1,000×g 10 minute spin at 4° C. the pelleted nuclei were resuspended in 0.2 M HCl and incubated on ice for 20 minutes. Following 10 minute spin at 21,000×g at 4° C. the acid extracted supernatant was neutralized with 1 M Tris-HCl pH 8 prior to BCA protein concentration measurement. Histone deacetylation assays were ran with 75 μg/mL extracted histones, 1 μM SIRT6, 50 μM CL5, CL5D or 5% DMSO control, 0.5 mM NAD^+, in 20 mM potassium phosphate pH 7.5. Reactions ran at 37° C. prior to quench with SDS loading dye and 5 minute boil. 540 ng of nuclei acid extract following sirtuin reaction were loaded for 15% SDS-PAGE followed by transfer to nitrocellulose. Membrane was blocked with 1% milk before blotted with anti-H3K9ac (Active Motiff 39917) 1:3000 and imaged. […] Bands were quantified using Image Studio Lite (LiCor). […]
In general terms: A western blot detects proteins with antibodies after separation by electrophoresis.

Sequence of SIRT6 (Q8N6T7 whole entry): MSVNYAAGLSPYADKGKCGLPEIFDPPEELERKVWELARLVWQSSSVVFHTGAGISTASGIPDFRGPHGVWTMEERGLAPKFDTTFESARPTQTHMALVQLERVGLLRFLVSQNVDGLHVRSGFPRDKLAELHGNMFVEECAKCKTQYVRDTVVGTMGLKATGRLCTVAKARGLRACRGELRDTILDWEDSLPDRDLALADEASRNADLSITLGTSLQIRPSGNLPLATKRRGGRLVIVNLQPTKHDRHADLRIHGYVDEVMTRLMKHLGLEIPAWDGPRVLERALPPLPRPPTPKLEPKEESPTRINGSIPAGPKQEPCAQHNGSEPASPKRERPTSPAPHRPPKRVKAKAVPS

As for `O=C(O)c1ccc2c(c1)C(=O)N(c1ccc(N(C(=O)c3c(Cl)cc(Cl)cc3Cl)C(=O)c3c(Cl)cc(Cl)cc3Cl)c(Cl)c1)C2=O` [CL-5D, 2-(3-chloro-4-(2,4,6-trichloro-N-(2,4,6-trichlorobenzoyl)benzamido)phenyl)-1,3-dioxoisoindoline-5-carboxylic acid], the “SIRT1 deacetylase activity at high activator concentration” value on SIRT1 is listed as “inhibited”. Also, the “SIRT6 deacetylation at H3K9 of whole histone substrate (in words)” value at SIRT6 is reported as “stimulated”.
